The molecules below were run against human MDM2 protein (amino acids 2-188) (Homo sapiens (Human), UniProt Q00987) (assay: TR-FRET assay, p53-MDM2 Assay 2 (modified)). Settings: not given.
Type: binding
Protocol: The inhibition of p53-MDM2 and p53-MDM4 interactions is measured by time resolved fluorescence energy transfer (TR-FRET). Fluorescence energy transfer (or Foerster resonance energy transfer) describes an energy transfer between donor and acceptor fluorescent molecules. For this assay, human MDM2 protein (amino acids 2-188) and human MDM4 protein (amino acids 2-185), tagged with a C-terminal biotin moiety, are used in combination with a Europium labeled streptavidin (Perkin Elmer, Inc., Waltham, Mass., USA) serving as the donor fluorophore. The p53 derived, Cy5 labeled peptide Cy5-[…] (p53 aa18-26) is the energy acceptor. Upon excitation of the donor molecule at 340 nm, binding interaction between MDM2 or MDM4 and the p53 peptide induces energy transfer and enhanced response at the acceptor emission wavelength at 665 nm. […] The ratiometric FRET assay readout is calculated from the raw data of the two distinct fluorescence signals measured in time resolved mode (fluorescence 665 nm/fluorescence 620 nm×1000).
After addition of 1.25 nM MDM2-biotinylated or 2.5 nM MDM4-biotinylated (internal preparations), and 0.625 nM Europium labeled streptavidin (Perkin Elmer), the solution is pre-incubated for 15 minutes at room temperature, then 10 nM Cy5-p53 peptide (internal preparation) is added before an incubation at room temperature for 15 minutes prior to reading the plate. For measurement of samples, a Victor II microplate reader (Perkin Elmer) is used with the following settings: Excitation 340 nm, Emission Donor 620 nm and Emission Acceptor 665 nm. IC50 values are calculated by curve fitting using XLfit. If not specified, reagents are purchased from Sigma-Aldrich Chemie GmBH, Buchs, Switzerland.

Chain of human MDM2 protein (amino acids 2-188) (Q00987 2-188): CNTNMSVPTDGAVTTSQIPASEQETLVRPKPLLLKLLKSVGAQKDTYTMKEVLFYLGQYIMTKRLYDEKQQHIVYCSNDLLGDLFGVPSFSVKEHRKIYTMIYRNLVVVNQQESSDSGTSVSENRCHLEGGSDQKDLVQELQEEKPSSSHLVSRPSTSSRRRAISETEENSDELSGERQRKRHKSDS

IC50 [nM] | SMILES
0.49 | COc1ncccc1-c1cc2c(n1C(C)C)C(c1ccc(Cl)cc1)N(c1cc(Cl)ccc1C)C2=O (stereo not shown) [Example 12, 5-(5-Chloro-2-methyl-phenyl)-6-(4-chloro-phenyl)-1-isopropyl-2-(2-methoxy-pyridin-3-yl)-5,6-dihydro-1H-pyrrolo[3,4-b]pyrrol-4-one]

Same assay, conditions: TR-FRET; 0.1 nM MDM2, 0.1 nM Europium labeled streptavidin, Tecan genios Pro reader; read-out: IC50 p53-MDM2 Assay 2

SMILES | IC50 [nM]
COc1ccncc1-c1cc2c(n1C(C)C)C(c1ccc(Cl)cc1)N(c1cc(Cl)ccc1C)C2=O (stereo not shown) [Example 13, 5-(5-Chloro-2-methyl-phenyl)-6-(4-chloro-phenyl)-1-isopropyl-2-(4-methoxy-pyridin-3-yl)-5,6-dihydro-1H-pyrrolo[3,4-b]pyrrol-4-one] | 0.176
COc1ncc(-c2cc3c(n2C(C)C)C(c2ccc(Cl)cc2)N(c2cc(Cl)ccc2C)C3=O)c(OC)n1 (stereo not shown) [Example 14, 5-(5-Chloro-2-methyl-phenyl)-6-(4-chloro-phenyl)-2-(2,4-dimethoxy-pyrimidin-5-yl)-1-isopropyl-5,6-dihydro-1H-pyrrolo[3,4-b]pyrrol-4-one] | 0.068
COc1ncncc1-c1cc2c(n1C(C)C)C(c1ccc(Cl)cc1)N(c1cc(Cl)ccc1C)C2=O (stereo not shown) [Example 16, 5-(5-Chloro-2-methyl-phenyl)-6-(4-chloro-phenyl)-1-isopropyl-2-(4-methoxy-pyrimidin-5-yl)-5,6-dihydro-1H-pyrrolo[3,4-b]pyrrol-4-one] | 0.308
COc1ccc(-c2cc3c(n2C(C)C)C(c2ccc(Cl)cc2)N(c2cc(Cl)ccc2C)C3=O)c(OC)n1 (stereo not shown) [Example 22, 5-(5-Chloro-2-methyl-phenyl)-6-(4-chloro-phenyl)-2-(2,6-dimethoxy-pyridin-3-yl)-1-isopropyl-5,6-dihydro-1H-pyrrolo[3,4-b]pyrrol-4-one] | 0.323
COc1ncc(-c2cc3c(n2C(C)C)[C@H](c2ccc(Cl)cc2)N(c2cc(Cl)ccc2C)C3=O)c(OC)n1 [Example 23, (S)-5-(5-Chloro-2-methyl-phenyl)-6-(4-chloro-phenyl)-2-(2,4-dimethoxy-pyrimidin-5-yl)-1-isopropyl-5,6-dihydro-1H-pyrrolo[3,4-b]pyrrol-4-one] | 0.065
COc1ncc(-c2cc3c(n2C(C)C)[C@@H](c2ccc(Cl)cc2)N(c2cc(Cl)ccc2C)C3=O)c(OC)n1 [Example 24, (R)-5-(5-Chloro-2-methyl-phenyl)-6-(4-chloro-phenyl)-2-(2,4-dimethoxy-pyrimidin-5-yl)-1-isopropyl-5,6-dihydro-1H-pyrrolo[3,4-b]pyrrol-4-one] | 29.6
COc1nc(N)ncc1-c1cc2c(n1C(C)C)C(c1ccc(Cl)cc1)N(c1cc(Cl)ccc1C)C2=O (stereo not shown) [Example 25, 2-(2-Amino-4-methoxy-pyrimidin-5-yl)-5-(5-chloro-2-methyl-phenyl)-6-(4-chloro-phenyl)-1-isopropyl-5,6-dihydro-1H-pyrrolo[3,4-b]pyrrol-4-one] | 0.263
CNc1ncc(-c2cc3c(n2C(C)C)C(c2ccc(Cl)cc2)N(c2cc(Cl)ccc2C)C3=O)c(OC)n1 (stereo not shown) [Example 26, 5-(5-Chloro-2-methyl-phenyl)-6-(4-chloro-phenyl)-1-isopropyl-2-(4-methoxy-2-methylamino-pyrimidin-5-yl)-5,6-dihydro-1H-pyrrolo[3,4-b]pyrrol-4-one] | 0.195
COc1nc(N(C)C)ncc1-c1cc2c(n1C(C)C)C(c1ccc(Cl)cc1)N(c1cc(Cl)ccc1C)C2=O (stereo not shown) [Example 27, 5-(5-Chloro-2-methyl-phenyl)-6-(4-chloro-phenyl)-2-(2-dimethylamino-4-methoxy-pyrimidin-5-yl)-1-isopropyl-5,6-dihydro-1H-pyrrolo[3,4-b]pyrrol-4-one] | 0.225
COc1ccc(C(=O)N2CCOCC2)cc1-c1cc2c(n1C(C)C)C(c1ccc(Cl)cc1)N(c1cc(Cl)ccc1C)C2=O (stereo not shown) [Example 28, 5-(5-Chloro-2-methyl-phenyl)-6-(4-chloro-phenyl)-1-isopropyl-2-[2-methoxy-5-(morpholine-4-carbonyl)-phenyl]-5,6-dihydro-1H-pyrrolo[3,4-b]pyrrol-4-one] | 0.106
Cc1ccc(Cl)cc1N1C(=O)c2cc(-c3ccccc3O)n(C(C)C)c2C1c1ccc(Cl)cc1 (stereo not shown) [Example 29, 5-(5-Chloro-2-methyl-phenyl)-6-(4-chloro-phenyl)-2-(2-hydroxy-phenyl)-1-isopropyl-5,6-dihydro-1H-pyrrolo[3,4-b]pyrrol-4-one] | 0.306

More lines, now with the values ahead:

IC50 [nM] | SMILES
0.286 | COc1ccc(CO)cc1-c1cc2c(n1C(C)C)C(c1ccc(Cl)cc1C)N(c1cccc(Cl)c1F)C2=O (stereo not shown) [Example 4, 5-(3-Chloro-2-fluoro-phenyl)-6-(4-chloro-2-methyl-phenyl)-2-(5-hydroxymethyl-2-methoxy-phenyl)-1-isopropyl-5,6-dihydro-1H-pyrrolo[3,4-b]pyrrol-4-one]
1.7 | COc1ncccc1-c1cc2c(n1C(C)C)C(c1ccc(Cl)cc1C)N(c1cccc(Cl)c1F)C2=O (stereo not shown) [Example 5, 5-(3-Chloro-2-fluoro-phenyl)-6-(4-chloro-2-methyl-phenyl)-1-isopropyl-2-(2-methoxy-pyridin-3-yl)-5,6-dihydro-1H-pyrrolo[3,4-b]pyrrol-4-one]
0.172 | COc1ccncc1-c1cc2c(n1C(C)C)C(c1ccc(Cl)cc1C)N(c1cccc(Cl)c1F)C2=O (stereo not shown) [Example 6, 5-(3-Chloro-2-fluoro-phenyl)-6-(4-chloro-2-methyl-phenyl)-1-isopropyl-2-(4-methoxy-Pyridin-3-yl)-5,6-dihydro-1H-pyrrolo[3,4-b]pyrrol-4-one]
49 | CNC(=O)c1ccc(OC)c(-c2cc3c(n2C(C)C)[C@@H](c2ccc(Cl)cc2C)N(c2cccc(Cl)c2F)C3=O)c1 [Example 8, 3-[(R)-5-(3-Chloro-2-fluoro-phenyl)-6-(4-chloro-2-methyl-phenyl)-1-isopropyl-4-oxo-1,4,5,6-tetrahydro-pyrrolo[3,4-b]pyrrol-2-yl]-4-methoxy-N-methyl-benzamide]
0.113 | COc1ccc(CO)cc1-c1cc2c(n1C(C)C)C(c1ccc(Cl)cc1)N(c1cc(Cl)ccc1C)C2=O (stereo not shown) [Example 11, 5-(5-Chloro-2-methyl-phenyl)-6-(4-chloro-phenyl)-2-(5-hydroxymethyl-2-methoxy-phenyl)-1-isopropyl-5,6-dihydro-1H-pyrrolo[3,4-b]pyrrol-4-one]
0.133 | COc1ccc(C(=O)N(C)C)cc1-c1cc2c(n1C(C)C)C(c1ccc(Cl)cc1)N(c1cc(Cl)ccc1C)C2=O (stereo not shown) [Example 15, 3-[5-(5-Chloro-2-methyl-phenyl)-6-(4-chloro-phenyl)-1-isopropyl-4-oxo-1,4,5,6-tetrahydro-pyrrolo[3,4-b]pyrrol-2-yl]-4-methoxy-N,N-dimethyl-benzamide]
0.281 | COc1ccc(C#N)cc1-c1cc2c(n1C(C)C)C(c1ccc(Cl)cc1)N(c1cc(Cl)ccc1C)C2=O (stereo not shown) [Example 17, 3-[5-(5-Chloro-2-methyl-phenyl)-6-(4-chloro-phenyl)-1-isopropyl-4-oxo-1,4,5,6-tetrahydro-pyrrolo[3,4-b]pyrrol-2-yl]-4-methoxy-benzonitrile]
0.095 | CNC(=O)c1ccc(OC)c(-c2cc3c(n2C(C)C)[C@H](c2ccc(Cl)cc2)N(c2cc(Cl)ccc2C)C3=O)c1 [Example 18, 3-[(S)-5-(5-Chloro-2-methyl-phenyl)-6-(4-chloro-phenyl)-1-isopropyl-4-oxo-1,4,5,6-tetrahydro-pyrrolo[3,4-b]pyrrol-2-yl]-4-methoxy-N-methyl-benzamide]
181 | CNC(=O)c1ccc(OC)c(-c2cc3c(n2C(C)C)[C@@H](c2ccc(Cl)cc2)N(c2cc(Cl)ccc2C)C3=O)c1 [Example 19, 3-[(R)-5-(5-Chloro-2-methyl-phenyl)-6-(4-chloro-phenyl)-1-isopropyl-4-oxo-1,4,5,6-tetrahydro-pyrrolo[3,4-b]pyrrol-2-yl]-4-methoxy-N-methyl-benzamide]
0.075 | COc1ccc(C(=O)N(C)C)cc1-c1cc2c(n1C(C)C)[C@H](c1ccc(Cl)cc1)N(c1cc(Cl)ccc1C)C2=O [Example 20, 3-[(S)-5-(5-Chloro-2-methyl-phenyl)-6-(4-chloro-phenyl)-1-isopropyl-4-oxo-1,4,5,6-tetrahydro-pyrrolo[3,4-b]pyrrol-2-yl]-4-methoxy-N,N-dimethyl-benzamide]
621 | COc1ccc(C(=O)N(C)C)cc1-c1cc2c(n1C(C)C)[C@@H](c1ccc(Cl)cc1)N(c1cc(Cl)ccc1C)C2=O [Example 21, 3-[(R)-5-(5-Chloro-2-methyl-phenyl)-6-(4-chloro-phenyl)-1-isopropyl-4-oxo-1,4,5,6-tetrahydro-pyrrolo[3,4-b]pyrrol-2-yl]-4-methoxy-N,N-dimethyl-benzamide]
0.376 | COc1ccccc1-c1cc2c(n1C(C)C)C(c1ccc(Cl)cc1C)N(c1cc(Cl)ccc1C)C2=O (stereo not shown) [Example 30, 5-(5-Chloro-2-methyl-phenyl)-6-(4-chloro-2-methyl-phenyl)-1-isopropyl-2-(2-methoxy-phenyl)-5,6-dihydro-1H-pyrrolo[3,4-b]pyrrol-4-one]
0.184 | CNC(=O)c1ccc(OC)c(-c2cc3c(n2C(C)C)C(c2ccc(Cl)cc2C)N(c2cc(Cl)ccc2C)C3=O)c1 (stereo not shown) [Example 31, 3-[5-(5-Chloro-2-methyl-phenyl)-6-(4-chloro-2-methyl-phenyl)-1-isopropyl-4-oxo-1,4,5,6-tetrahydro-pyrrolo[3,4-b]pyrrol-2-yl]-4-methoxy-N-methyl-benzamide]

Source: patent US9365576B2, “Pyrrolopyrrolidinone compounds” (Novartis AG, priority 2012, dated 2016)
